# Reference: patent US8217042B2, “Pyridopyrazines and their use as modulators of kinases” (Zentaris GmbH, priority 2005, dated 2012)
# Columns and labels:
# Jnk1 + Jnk2 = experiment: Cell-free kinase assay (ALPHA technology), Jnk1 + Jnk2; type: biochemical; settings: at 10 μM or 100 μM* ATP, recombinant human kinases
# Procedure: (§1) The inhibitory effect of the inventive compounds was tested on various human serine/threonine kinases, tyrosine kinases and lipid kinases in enzymatic assays. Recombinant human kinases, for example Erk2, PI3Kalpha, -beta, -gamma, -delta, p38alpha, p38gamma, Jnk1, Jnk2 and others were used, in some cases as full-length kinases, in some cases as truncated fragments—but at least consisting of the functional kinase domains. The commercial kinase proteins (Proqinase, Upstate) were used as recombinant fusion proteins with GST (glutathione S-transferase) tag or His tag. Depending on the substrate type, the different kinase reactions were quantified by means of suitable ALPHA™ beads (PerkinElmer). […]
# (§2) The fluorescence was detected the next morning in a Fusion™ alpha instrument (Perkin Elmer).
# (§3) The calculation of % inhibition values per substance concentration was done by means of the following formula from the raw data determined in the Fusion™ alpha:
# (§4) The controls were each determined 8 times, the substance samples each twice. 0% control contained neither any ATP nor any substrate; the 100% control contained no test substance. The IC50 values were determined with GraphPadPrism.
# p38alpha = molecular target: T1, p38alpha (Homo sapiens, UniProt Q16539); experiment: Cell-free kinase assay (ALPHA technology), p38alpha; type: biochemical; settings: at 10 μM or 100 μM* ATP, recombinant human kinase
# T1 construct: in some cases as full-length kinases, in some cases as truncated fragments
# Procedure: as §1, §2, §3, §4
# Erk2 = molecular target: T2, Erk2; experiment: Cell-free kinase assay (ALPHA technology), Erk2-ALPHA; type: biochemical; settings: 10 μM ATP, recombinant human kinase
# T2 construct: in some cases as full-length kinases, in some cases as truncated fragments; purchased Upstate 14-173
# Procedure: (§5) The inhibitory effect of the inventive compounds was tested on various human serine/threonine kinases, tyrosine kinases and lipid kinases in enzymatic assays. Recombinant human kinases, for example Erk2, PI3Kalpha, -beta, -gamma, -delta, p38alpha, p38gamma, Jnk1, Jnk2 and others were used, in some cases as full-length kinases, in some cases as truncated fragments—but at least consisting of the functional kinase domains. The commercial kinase proteins (Proqinase, Upstate) were used as recombinant fusion proteins with GST (glutathione S-transferase) tag or His tag. Depending on the substrate type, the different kinase reactions were quantified by means of suitable ALPHA™ beads (PerkinElmer).
# (§6) The substrate testing on the Erk assay is described in detail below. Selected test results of the Erk2, PI3Kalpha assays are cited below. […] The kinase reaction was then stopped by adding 10 μl of the ALPHA bead mix (10 μg/ml, #6760617/PerkinElmer), pre-incubated with anti-phospho MBP antibody (320 μM, #05-429/Upstate), in 25 mM Tris, 200 mM NaCl, 100 mM EDTA and 0.3% BSA, and left to stand overnight. • b) PI3K-ALPHAs (e.g. PI3Kalpha): The test substance, 1 ng of PI3Kalpha (#14-602, Upstate), 100 μM ATP and 20 μM PIP2 substrate (#P4508, Echelon) on a 384-well Optiplate (Perkin Elmer) for 1 h in 50 mM Hepes, 50 mM NaCl, 5 mM MgCl2, 0.05% Chaps, 5 mM DTT at pH 7.4. Subsequently, the kinase reaction was stopped by adding the ALPHA bead mix (10 μg/ml, #6760603/PerkinElmer), preincubated with 1 nM GST:Grp1 fusion protein (Upstate) and 15 nM biotinylated PIP3 (#C-39B6/Echelon) in 50 mM Hepes, 50 mM NaCl, 50 mM EDTA and 0.1% BSA, and left to stand overnight.
# as §2, §3, §4
# PI3Kalpha = molecular target: T3, PI3Kalpha (Homo sapiens, UniProt P42336); experiment: Cell-free kinase assay (ALPHA technology), PI3K-ALPHA; type: biochemical; settings: 100 μM ATP, recombinant human kinase
# T3 construct: in some cases as full-length kinases, in some cases as truncated fragments; purchased Upstate 14-602
# Procedure: as §5, §6, §2, §3, §4
# MDA-MB468 = experiment: XTT assay, anti-proliferative action, MDA-MB468; type: cell-based; settings: MDA-MB468 cells, 45 h incubation
# Procedure: (§7) The principle of this test is based on the intracellular reduction of the tetrazolium dye XTT (sodium 3′-[1-(phenylaminocarbonyl)-3,4-tetrazolium]bis(4-methoxy-6-nitro)benzenenesulphonic acid, Sigma) to a formazan dye by mitochondrial dehydrogenases.
# (§8) The dye is formed only by metabolically active cells; its photometrically measurable intensity is a quantitative indicator for the presence of living cells. The reduction in the dye formation as a result of incubation of the cells with substances serves as a parameter for the anti-proliferative action.
# (§9) The tumour cell lines (ATCC) were seeded in 96-well microtitre plates in a defined cell count (5000 cells/well for BxPC3 and Hct116; 10 000 cells/well for MDA MB468), and then incubated overnight in an incubator at 37° C., 5% CO2 and 95% air humidity. The test substances were made up as stock solutions (10 mM) in DMSO. […] The cell plates were then incubated for 45 h in an incubator at 37° C., 5% CO2 and 95% air humidity.
# (§10) For the detection reaction, the XTT substrate was admixed with PMS (N-methyldibenzopyrazine methylsulphate, Sigma) and added to the cells, so as to result in a final concentration of 325 μg of XTT/ml and 2.5 μg PMS/ml. The mixture was then incubated for 3 h at 37° C., 95% air humidity. Subsequently the formazan salt formed by cellular dehydrogenases was quantified at an absorption of 490 nm.
# (§11) The evaluation of the % inhibition values was done by means of the following formula from the values for the optical densities measured in each case at 490 nm:
# (§12) The controls were determined 8 times each, the substance samples twice each. 0% control contained no cells; the 100% control contained no test substance. The EC50 values were determined with GraphPadPrism.
# BxPC3 = experiment: XTT assay, anti-proliferative action, BxPC3; type: cell-based; settings: BxPC3 cells, 45 h incubation
# Procedure: as §7, §8, §9, §10, §11, §12
# Hct116 = experiment: XTT assay, anti-proliferative action, Hct116; type: cell-based; settings: Homo sapiens, HCT-116, 45 h, Hct116 cells, 45 h incubation
# Procedure: as §7, §8, §9, §10, §11, §12
# T1 sequence (Q16539 whole entry, the tested form may be a part): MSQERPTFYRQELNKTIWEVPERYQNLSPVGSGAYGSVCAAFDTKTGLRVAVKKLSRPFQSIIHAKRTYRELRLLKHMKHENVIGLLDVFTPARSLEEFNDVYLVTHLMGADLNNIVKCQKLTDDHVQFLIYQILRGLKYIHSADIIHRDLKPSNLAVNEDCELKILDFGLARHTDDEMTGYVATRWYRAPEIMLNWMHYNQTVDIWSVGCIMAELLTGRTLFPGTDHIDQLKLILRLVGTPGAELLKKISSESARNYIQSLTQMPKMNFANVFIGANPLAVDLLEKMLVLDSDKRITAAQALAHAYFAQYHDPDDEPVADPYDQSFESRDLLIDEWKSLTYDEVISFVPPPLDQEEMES
# T2 sequence (P63085 whole entry, the tested form may be a part): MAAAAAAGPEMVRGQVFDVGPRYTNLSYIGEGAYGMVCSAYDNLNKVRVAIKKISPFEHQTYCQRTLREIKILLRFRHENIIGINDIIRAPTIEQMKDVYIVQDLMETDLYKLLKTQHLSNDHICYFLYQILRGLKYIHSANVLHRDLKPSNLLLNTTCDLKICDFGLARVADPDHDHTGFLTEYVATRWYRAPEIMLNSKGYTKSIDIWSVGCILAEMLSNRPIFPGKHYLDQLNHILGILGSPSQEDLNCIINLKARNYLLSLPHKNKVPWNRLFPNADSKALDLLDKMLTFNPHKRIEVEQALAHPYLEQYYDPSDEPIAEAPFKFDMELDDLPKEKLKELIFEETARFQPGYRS
# T3 sequence (P42336 whole entry, the tested form may be a part): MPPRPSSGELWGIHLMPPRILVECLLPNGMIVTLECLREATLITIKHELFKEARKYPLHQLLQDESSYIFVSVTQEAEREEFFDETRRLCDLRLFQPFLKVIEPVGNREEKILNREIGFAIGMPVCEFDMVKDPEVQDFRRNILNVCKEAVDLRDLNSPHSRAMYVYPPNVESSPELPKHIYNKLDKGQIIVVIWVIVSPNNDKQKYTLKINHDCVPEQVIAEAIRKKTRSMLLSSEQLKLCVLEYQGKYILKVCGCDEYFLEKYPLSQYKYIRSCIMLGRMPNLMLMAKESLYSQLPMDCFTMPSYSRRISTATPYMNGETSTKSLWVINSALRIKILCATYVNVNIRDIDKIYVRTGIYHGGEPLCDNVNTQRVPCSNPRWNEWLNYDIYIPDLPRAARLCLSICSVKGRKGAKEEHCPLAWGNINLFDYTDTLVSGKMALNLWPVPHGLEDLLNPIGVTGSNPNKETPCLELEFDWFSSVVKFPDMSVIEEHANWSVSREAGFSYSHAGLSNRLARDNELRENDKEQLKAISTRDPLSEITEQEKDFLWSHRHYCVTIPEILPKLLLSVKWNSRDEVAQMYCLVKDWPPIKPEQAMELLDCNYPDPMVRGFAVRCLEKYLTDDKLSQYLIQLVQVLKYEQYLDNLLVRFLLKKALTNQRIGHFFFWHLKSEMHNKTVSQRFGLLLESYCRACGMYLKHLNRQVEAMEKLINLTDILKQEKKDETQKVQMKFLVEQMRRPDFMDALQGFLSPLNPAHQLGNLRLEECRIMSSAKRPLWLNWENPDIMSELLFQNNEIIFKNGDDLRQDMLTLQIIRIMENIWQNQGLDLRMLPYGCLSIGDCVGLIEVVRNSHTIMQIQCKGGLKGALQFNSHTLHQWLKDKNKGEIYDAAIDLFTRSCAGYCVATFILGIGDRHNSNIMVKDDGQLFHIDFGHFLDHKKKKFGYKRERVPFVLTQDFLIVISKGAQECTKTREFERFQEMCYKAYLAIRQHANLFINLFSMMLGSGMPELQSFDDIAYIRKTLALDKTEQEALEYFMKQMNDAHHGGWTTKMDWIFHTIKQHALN
# T3 sequence (P27986 whole entry partner, the tested form may be a part): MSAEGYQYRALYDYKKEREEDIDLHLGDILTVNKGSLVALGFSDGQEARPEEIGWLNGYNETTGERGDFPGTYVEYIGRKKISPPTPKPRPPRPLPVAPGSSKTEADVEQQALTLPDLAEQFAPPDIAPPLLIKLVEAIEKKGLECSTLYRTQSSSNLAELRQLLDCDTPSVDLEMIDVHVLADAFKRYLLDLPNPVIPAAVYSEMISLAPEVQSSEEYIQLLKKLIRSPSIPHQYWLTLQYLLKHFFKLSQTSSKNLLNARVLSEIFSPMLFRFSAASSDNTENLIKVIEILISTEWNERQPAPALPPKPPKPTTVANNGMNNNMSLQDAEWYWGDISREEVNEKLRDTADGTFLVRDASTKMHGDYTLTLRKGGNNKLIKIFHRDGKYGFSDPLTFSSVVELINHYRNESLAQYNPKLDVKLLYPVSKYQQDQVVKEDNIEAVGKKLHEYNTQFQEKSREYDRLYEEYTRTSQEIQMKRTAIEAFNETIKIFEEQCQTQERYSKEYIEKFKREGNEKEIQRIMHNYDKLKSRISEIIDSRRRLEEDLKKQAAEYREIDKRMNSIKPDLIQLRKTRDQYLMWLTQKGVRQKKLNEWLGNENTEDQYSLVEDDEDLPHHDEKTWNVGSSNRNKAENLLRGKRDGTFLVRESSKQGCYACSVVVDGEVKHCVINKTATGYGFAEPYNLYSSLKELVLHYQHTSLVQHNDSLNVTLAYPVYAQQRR
SMILES,IC50 (Jnk1 + Jnk2) [µM],IC50 (p38alpha) [µM],IC50 (Erk2) [µM],IC50 (PI3Kalpha) [µM],melting point,"EC50 (MDA-MB468; Homo sapiens, MDA-MB-468, 45 h) [µM]","EC50 (BxPC3; Homo sapiens, BXPC-3, 45 h) [µM]",EC50 (Hct116) [µM],EC50 (MDA-MB468) [µM],EC50 (BxPC3) [µM]
"CONC(=O)Nc1ccc2ncc(-c3ccccc3)nc2n1 [Compound 7, 1-Methoxy-3-(3-phenylpyrido[2,3-b]pyrazin-6-yl)urea]",11.4,> 100,–,–,–,–,–,–,–,–
"CCNC(=O)Nc1ccc2ncc(-c3ccc(NC(=O)OCCOC)cc3)nc2n1 [Compound 22, 2-Methoxyethyl {4-[6-(3-ethylurea)pyrido[2,3-b]pyrazin-3-yl]phenyl}carbamate]",> 31.6,–,> 100,1.2,249 to 251 °C,–,–,–,–,–
"CCNC(=O)Nc1ccc2ncc(Nc3cccc(C(=O)NC)c3)nc2n1 [Compound 50, 3-[6-(3-Ethylurea)pyrido[2,3-b]pyrazin-3-ylamino]-N-methylbenzamide]",> 31.6,18.1,4.7,0.683,228 to 234 °C,–,–,–,–,–
"CCNC(=O)Nc1ccc2ncc(-c3ccc(CN4CCOCC4)cc3)nc2n1 [Compound 28, 1-Ethyl-3-[3-(4-morpholin-4-ylmethylphenyl)pyrido[2,3-b]pyrazin-6-yl]urea]",5,> 100,0.364,1.8,–,–,–,–,–,–
"CCNC(=O)Nc1ccc2ncc(-c3ccc(OC(=O)OCC(C)C)cc3)nc2n1 [Compound 17, 4-[6-(3-Ethylurea)pyrido[2,3-b]pyrazin-3-yl]phenyl isobutyl carbonate]",> 100,–,0.167,11.8,–,> 25,> 25,3.4,–,–
"CCNC(=O)Nc1ccc2ncc(-c3ccc(OCCOCCOC)cc3)nc2n1 [Compound 29, 1-Ethyl-3-(3-{4-[2-(2-methoxyethoxy)ethoxy]phenyl}pyrido[2,3-b]pyrazin-6-yl)urea]",24.2,> 100,0.396,2.3,–,–,–,–,–,–
"CCNC(=O)Nc1ccc2ncc(-c3ccc(OC(=O)N(CC)CC)cc3)nc2n1 [Compound 12, 4-[6-(3-Ethylurea)pyrido[2,3-b]pyrazin-3-yl]phenyl diethylcarbamate]",0.637,8.8,–,–,–,–,–,–,–,–
"CCNC(=O)Nc1ccc2ncc(-c3ccc(NC(=O)COCCOC)cc3)nc2n1 [Compound 30, N-{4-[6-(3-Ethylurea)pyrido[2,3-b]pyrazin-3-yl]phenyl}-2-(2-methoxyethoxy)acetamide]",13.8,–,> 31.6,0.749,212 to 215 °C,–,–,–,–,–
"CCNC(=O)Nc1ccc2ncc(-c3ccc(OC(=O)N(C)C)cc3)nc2n1 [Compound 19, 4-[6-(3-Ethylurea)pyrido[2,3-b]pyrazin-3-yl]phenyl dimethylcarbamate]",10.1,–,3.9,2.3,> 230 °C (dec.),–,–,–,–,–
"CONC(=O)Nc1ccc2ncc(-c3ccc(O)c(OC)c3)nc2n1 [Compound 61, 1-Methoxy-3-[3-(4-hydroxy-3-methoxy-phenyl)-pyrido[2,3-b]pyrazin-6-yl]-urea]",2.1,> 100,0.3,1.5,–,7.1,–,6,–,–
"C=CCONC(=O)Nc1ccc2ncc(-c3ccccc3)nc2n1 [Compound 8, 1-Allyloxy-3-(3-phenylpyrido[2,3-b]pyrazin-6-yl)urea]",19.4,> 100,–,–,–,–,–,–,–,–
"CCNC(=O)Nc1ccc2ncc(-c3ccc(OC(=O)/C=C/c4ccccc4)cc3)nc2n1 [Compound 13, 4-[6-(3-Ethylurea)pyrido[2,3-b]pyrazin-3-yl]phenyl (E)-3-phenylacrylate]",> 100,–,0.64,–,236 to 238 °C,–,–,–,–,–
"CCNC(=O)Nc1ccc2ncc(-c3cccc(OC(=O)OCCOC)c3)nc2n1 [Compound 16, 3-[6-(3-Ethylurea)pyrido[2,3-b]pyrazin-3-yl]phenyl 2-methoxyethyl carbonate]",5.6,–,0.513,3.3,–,11,> 25,11,–,–
"CCNC(=O)Nc1ccc2ncc(-c3ccc(OC(=O)OCCOC)cc3)nc2n1 [Compound 56, 4-[6-(3-Ethylurea)pyrido[2,3-b]pyrazin-3-yl]phenyl 2-methoxyethyl carbonate p-toluenesulphonate]",3.1,–,0.272,1.3,–,–,–,9.4,15.5,> 20
"CCNC(=O)Nc1ccc2ncc(-c3ccc(NC(=O)OC(C)(C)C)cc3)nc2n1 [Compound 21, tert-Butyl {4-[6-(3-ethylurea)pyrido[2,3-b]pyrazin-3-yl]phenyl}carbamate]",> 31.6,–,> 100,1.2,281 to 283 °C,–,–,–,–,–
"CCNC(=O)Nc1ccc2ncc(Nc3ccc(S(C)(=O)=O)cc3)nc2n1 [Compound 48, 1-Ethyl-3-[3-(4-methanesulphonylphenylamino)pyrido[2,3-b]pyrazin-6-yl]urea]",> 31.6,> 100,> 100,1.1,275 to 280 °C,–,–,–,–,–
"CCNC(=O)Nc1ccc2ncc(Nc3ccc(CN4CCCCC4)cc3)nc2n1 [Compound 51, 1-Ethyl-3-[3-(4-piperidin-1-ylmethylphenylamino)pyrido[2,3-b]pyrazin-6-yl]urea]",> 31.6,> 100,19.1,7.5,221 to 224 °C,–,–,–,–,–
"CCNC(=O)Nc1ccc2ncc(C#Cc3ccccc3)nc2n1 [Compound 1, 1-Ethyl-3-(3-phenylethynylpyrido[2,3-b]pyrazin-6-yl)urea]",–,–,–,–,236 to 238 °C (dec.),–,–,–,–,–
"CCNC(=O)Nc1ccc2ncc(/C=C/C3CCCCC3)nc2n1 [Compound 5, 1-[3-((E)-2-Cyclohexylvinyl)pyrido[2,3-b]pyrazin-6-yl]-3-ethylurea]",–,–,–,–,202 to 204 °C (dec.),–,–,–,–,–
